In patent US20150328329A1, “LIGANDS THAT TARGET HCV-E2 BINDING SITES ON CD81 AND THERAPEUTIC METHODS USING THEM” (American University of Cairo, priority 2012, published 2015):

What was measured:
[1] = target: T1, recombinant CD81-LEL (GST tag) (Homo sapiens, UniProt P60033); experiment: Surface plasmon resonance (Biacore T200) binding of ligands to immobilized recombinant CD81-LEL; conditions: Table A; ligand 600 μM in PBS-0.05% Tween-80; CD81-LEL-GST on CM5 chip
T1 construct: the large extracellular loop of CD81 (CD81-LEL); gift of Dr. Shoshana Levy, Stanford University
T1 sequence (P60033 113-201 limits assumed): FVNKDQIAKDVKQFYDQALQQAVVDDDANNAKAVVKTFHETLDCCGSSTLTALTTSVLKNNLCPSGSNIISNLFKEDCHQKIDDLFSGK
Protocol: SPR analysis was performed using a Biacore T200 workstation (GE Healthcare, NJ, USA). A recombinant form of the CD81-LEL protein with a GST tag (generously provided by Dr. Shoshana Levy, Stanford University) was used to confirm, using an established experimental technique, the binding of several ligands to the protein. Briefly, 10 μM CD81-LEL-GST diluted into 10 mM Na-Acetate buffer pH 4.5 was immobilized for 15 min at a flow speed of 5 μl/min onto a CM5 sensor chip using amine-coupling (EDC-NHS). Approximately 20,000 RU of protein were immobilized on the chip. The ligands were prepared as 600 μM solutions in PBS-0.05% Tween-80 (the running buffer) and they were introduced to the protein using a pre-programmed 3 minute association and 1 minute dissociation interval.
The binding affinity of the most tightly bound ligand in the group selected for ligand conjugate design (Ligand 1) was estimated using data collected from a series of SPR binding experiments conducted at different ligand concentrations. To obtain the kinetic and affinity data needed to estimate the Kd, the original ligand was diluted serially with running buffer to produce seven different ligand concentrations: 1024 μM, […], 256 μM, 128 μM, 64 μM, 32 μM and 0 μM. Data were fitted using a monovalent binding model.
A total of 36 ligands were tested experimentally using surface Plasmon resonance (on a Biacore T200 instrument) to identify which of the molecules calculated to bind to Sites 1 and 2 on CD81 actually bind to a recombinant form of the protein (CD81-LEL). Twenty-six of the molecules provided a positive change in response units (RU) upon introduction to a chip containing the immobilized protein (Table A), indicating the ligands bound to the protein. The measured responses for the ligands that bound varied from 2.3 to 78.4 RU. Those ligands providing the largest responses tended to be molecules that were calculated to bind more deeply inside cavities in Site 1 (ligands 30930, 98026, 7436, 5069), Site 2 (ligands 127947, 38743) or Site 4 (ligands 78623, 16631).
Experimental analysis of ligand binding to recombinant CD81 LEL. Forty ligands calculated by AutoDock to bind to sites 1 and 2 on CD81-LEL were tested experimentally using surface Plasmon resonance as described in the Materials and Methods section. Ligand code numbers are those assigned by the National Cancer Institute. […] Because the binding experiments were performed by passing the same concentration of each ligand sequentially across the same protein coated chip using both techniques, the magnitude of the responses can be used to provide an approximate ranking of binding strength.

[2] = target: T2, native CD81 on Raji cells (Homo sapiens, UniProt P60033); experiment: Competition assay: inhibition of FITC-labeled JS-81 anti-CD81 antibody binding to native CD81 on live Raji cells (flow cytometry); format: cell-based
T2 construct: endogenous in cells; host or cells: Raji (human B cell line)
T2 sequence (P60033 1-236): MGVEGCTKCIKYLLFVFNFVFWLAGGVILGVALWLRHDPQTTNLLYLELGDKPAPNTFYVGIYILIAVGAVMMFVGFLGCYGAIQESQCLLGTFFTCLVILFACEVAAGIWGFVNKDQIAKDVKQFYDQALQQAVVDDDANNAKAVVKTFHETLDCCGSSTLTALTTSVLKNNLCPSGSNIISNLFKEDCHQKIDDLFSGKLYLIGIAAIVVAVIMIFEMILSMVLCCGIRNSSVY
From the text: A subset of these ligands and some of those listed in the patent have been tested to identify those ligands that bind to the correct region of the CD81 protein and for binding to native CD81 on living cells (a Raji cell line). This assay tests three concentrations of the ligand to determine if the ligand is capable of inhibiting the binding of an antibody called JS-81. This antibody is known to bind to the region of the CD81 protein we have targeted. If the ligand decreases JS-81 binding as you increase the concentration of the ligand, it is 1) binding to native CD81 on the Raji cells and 2) it is binding to the correct region of the protein.
For antibody neutralization assay Raji cells were used, a human B cell line that expressed high amounts of CD81 on the surface (data not shown). Cells were grown in RPMI medium (10% FCS, 1% penicillin/streptomycin, 1% L-glutamine, 1% non-essential amino acids, 1% sodium pyruvate, pH 7.4, at 37° C. with 5% CO2). 2×10^5 cells were incubated with or without different concentrations (50 μM, 100 μM, 400 μM and 1 mM) of indicated inhibitor for 20 min at room temperature, subsequently 1 ul (16 ng/μl) of FITC-labeled anti CD81 antibody (BD Pharmingen, 551108) was added to the cells and incubated for 20 min (antibody titration was performed to obtain a working dilution range, data not shown). Cells were washed and analyzed by flow cytometry using fluorescence-activated cell sorting (FACS) (BD FACSCalibur, software: Cell Quest Pro). Mean Fluorescence Intensity MFI was calculated using Flowjo software (TreesStar, www.flowjo.com).

recombinant CD81-LEL = target: T3, recombinant CD81-LEL (Homo sapiens, UniProt P60033); experiment: Dual polarization interferometry (DPI) binding of ligands to immobilized recombinant CD81-LEL; conditions: for DPI Binding Response (Radians), molecule added alone to CD81: Table D, single molecule added to CD81
T3 construct: the large extracellular loop of CD81 (CD81-LEL); GST; His; Shoshana Levy Lab, Stanford (gift)
T3 sequence (P60033 113-201 limits assumed): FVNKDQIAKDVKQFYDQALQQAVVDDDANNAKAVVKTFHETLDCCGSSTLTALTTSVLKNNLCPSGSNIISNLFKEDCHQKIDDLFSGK
Protocol: DPI analyses were performed using an AnaLight 4D workstation (Farfield Group, Manchester UK). The recombinant CD81-LEL was immobilized onto a Thiol AnaChip using Sulfo-GMBS as a cross-linker in PBS running buffer. Non-specific sites were blocked with digested casein. TRIS was used to cap the cross-linker, blocking any additional amines from covalently binding to the cross-linker on the chip surface. Ligands were prepared as a 20 mM stock solutions in DMSO. Each ligand was diluted to a final concentration of 500 μM in PBS just prior to injection (final DMSO concentration was 2.5%). PBS and DMSO mixed in the same ratio were used as a blank. Data collection and analysis were performed using the AnaLight Resolver.
Six of the more interesting ligand candidates being considered for use in creating a ligand conjugate (three calculated to bind to Site 1 and three calculated to bind to Site 2) were further tested to confirm binding using a second experimental technique, dual polarization interferometry. The results, shown in FIG. 6, confirmed that all six ligands bound to the protein. The relative rank in strength of binding of the Site 1 and 2 ligands, as determined by DPI, were also similar to the ranking obtained by SPR or calculated by AutoDock for the majority of the ligands. […] One reason for this observed difference in the DPI response may relate to conformational changes in the protein that occur when the small molecules bind. The change in radians measured using DPI when a ligand binds to a protein is known to result from a combination of two effects: 1) the resulting increase in mass/volume when the ligand binds to the protein on the surface of the chip and 2) a conformational change in the protein induced by the binding of the ligand. Molecules binding in the deeper cavity would be expected to have more and stronger contacts with the protein than ligands sitting exposed to solvent in shallow cavities or surface binding sites. […]

HCV E2 binding to CD81 = target: T4, HCV E2 binding to CD81 (Homo sapiens, UniProt P60033); experiment: DPI assay of ligands blocking HCV E2 protein binding to CD81; conditions: Table D; E2 Protein alone gives 4.1402; reduced response = blocking
T4 sequence (P60033 113-201 limits assumed): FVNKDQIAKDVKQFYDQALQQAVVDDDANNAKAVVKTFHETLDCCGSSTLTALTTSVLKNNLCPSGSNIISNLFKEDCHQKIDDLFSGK
Protocol: A subset of the ligands identified to bind to CD81 have been tested using Dual Polarization Interferometry (DPI) to determine if the ligands themselves are effective in blocking E2 binding to CD81. The experiments are conducted by first immobilizing one of the proteins (HCV E2 or CD81) on the chip used to perform the assay. The other protein is then introduced to the chip and the amount of binding is measured. This protein is then washed off and the protein and one of the ligands are then introduced to the chip. If the ligand blocks/interferes with the binding of the two proteins, the DPI response (measured in Radians) is reduced compared to when the protein is added alone. After the measurement is made, the protein and ligand are washed off and the next combination of the protein and a different ligand are added to the chip and the DPI response is measured. Similar experiments can be performed in which the protein is mixed with two or more ligands to see if they have a greater effect when combined.
Experiments have been conducted with either CD81 or HCV E2 immobilized on the chip. Six ligands have been tested to date.

Molecule: COc1ccccc1/C=C(\C#N)C(=O)O [Ligand 638134]
- SPR Response Units [1]: 25 RU

Molecule: O=C(O)/C=C\c1cc2c(cc1[N+](=O)[O-])OCO2 [Ligand 21034]
- SPR Response Units [1]: 21.1 RU

Molecule: N=C(N)N/N=C/c1c(Cl)cccc1Cl [Ligand 68982]
- Inhibition of JS-81 Binding (%) ([2]; 50 μM ligand): 0%
- Inhibition of JS-81 Binding (%) ([2]; 100 μM ligand): 13%
- Inhibition of JS-81 Binding (%) ([2]; 400 μM ligand): 15%
- SPR Response Units [1]: 41.2 RU

Molecule: COc1cc(CCC(=O)O)on1 [Ligand 303800]
- SPR Response Units [1]: 7.8 RU

Molecule: CCCNC1=C(C)C(=O)C2=C(C1=O)C(COC(N)=O)C1(OC)C3NC3CN21 (centres unmarked) [Ligand 123115]
- SPR Response Units [1]: 34.5 RU

Molecule: O=C(O)CSc1nc2ccccc2s1 [Ligand 11891]
- SPR Response Units [1]: 15.2 RU

Molecule: O=C(O)/C=C\C(=O)Nc1nccs1 [Ligand 80807]
- DPI Radians (recombinant CD81-LEL; Table A, ligand 500 μM in PBS, 2.5% DMSO): 0.1909 Radians

Molecule: O=C(O)CCCCC1SCC2NC(=O)NC21 (centres unmarked) [Ligand 63865]
- SPR Response Units [1]: 58 RU

Molecule: O=C(O)c1ccc(O)c(O)c1 [Ligand 16631]
- SPR Response Units [1]: 61.8 RU

Molecule: O=C(Cn1ccc(=O)[nH]c1=O)Nc1ccc(C(=O)O)c(O)c1 [Ligand 93033]
- DPI Response (Radians), ligand added to CD81 protein (recombinant CD81-LEL; Table B and b111, ligand 500 μM in PBS, 2.5% DMSO): 0.7245 Radians
- DPI Binding Response (Radians), molecule added alone to CD81 (recombinant CD81-LEL): 0.7245 Radians
- Inhibition of JS-81 Binding (%) ([2]; 50 μM ligand): 0%
- Inhibition of JS-81 Binding (%) ([2]; 100 μM ligand): 0%
- Inhibition of JS-81 Binding (%) ([2]; 400 μM ligand): 16%
- DPI Binding Response (Radians), E2 Protein added to CD81 together with ligand(s) (HCV E2 binding to CD81): 0.2546 Radians
- SPR Response Units [1]: 16.9 RU

B1: E2 Protein: HCV E2 envelope glycoprotein that binds CD81 (protein)
chain: QTHITGGSTAHAAAGLANLFSMGPKQDIRLINTNGSWHINRTALNCNESLNTGWVAGLLYYNKFNSSGCSERLASCRPLTDFAQGWGPISYANGSGPDQRPYCWHYPPRPCGIVPAKSVCGPVYCFTPSPVVVGTTDRSGAPTYSWGENETDVFILNNTRPPLGNWFGCTWMNSSGFTKVCGAPPCVIGGVGNNTLRCPTDCFRKHPEATYSRCGSGPWITPRCLVNYPYRLWHYPCTINYTIFKVRMYVGGVEHRLEAACNWTRGERCDLEDRDRSELSPLLLSTTQWQVLPCSFTTLPALSTGLIHLHQNIVDVQYLYGVGSSIASWAIKWDYVVLLFLLLADARVCSCLWMMLLISQAEA
- DPI Binding Response (Radians), molecule added alone to CD81 (recombinant CD81-LEL): 4.1402 Radians
